Several values for one entry are separate records, joined by “and”; a condition that tells them apart may be missing. Equal values may be shown once.
Key:
PaPepA [1] = target: T1, PaPepA (Pseudomonas aeruginosa, UniProt Q02RY8); assay: Isothermal titration calorimetry of metal binding; parameters: GG stays after cleavage) (N); made in house; host or cells: E. coli BL21(DE3)
Description: Purified PaPepA (100 μM) was buffer exchanged into ITC buffer (50 mM Tris, 140 mM NaCl, pH 7.4) using a Millipore Amicon Ultra-4 centrifugal unit (10 kDa MWCO). The protein was syringe-filtered through a […] and diluted to 50 μM. 3 mL solutions of filtered metal were also prepared. A 400 μM solution of MnCl2 and a 1 mM solution of MgCl2 were prepared by dilution of 1 M metal chloride stocks (Sigma) into ITC buffer.
Buffer, protein, and metal solutions were degassed. Following extensive washes with ITC buffer, the protein was loaded into the cell (volume 1.43 mL) of a VP-ITC (MicroCal) and MnCl2 or MgCl2 solution was loaded into the syringe (total volume 300 μL). Experiments were carried out using the following settings: temperature = 25 °C, duration = 4 s, spacing = 210 s, filter period = 2 s, for 35 injections (one injection of 2 μL followed by 34 injections of 8 μL). Data were analyzed using Origin(Pro), Version 2021 (OriginLab Corporation, Northampton, Massachusetts, USA), and MicroCal PEAQ-ITC analysis software (Malvern).

PaPepA [2] = target: T1, PaPepA; assay: Metal activation of Leu-pNA cleavage (metal varied, Leu-pNA fixed); type: biochemical; parameters: GG stays after cleavage) (N); made in house; host or cells: E. coli BL21(DE3); settings: with 2 mM Leu-pNA
Description: A BMG Labtech POLARstar Omega plate reader was used for activity assays and kinetic studies involving amino acids conjugated to para-nitroaniline (pNA) (Sigma) or peptides as substrates. Assays were carried out at 25 °C in clear half-area 96-well plates (Greiner Bio-One). […] For kinetic assays investigating Leu-AMC as a substrate, a SpectraMax M2E was used. Reactions were carried out using black half-area 96-well plates with clear bottoms (Greiner Bio-One). Product formation was assessed by monitoring changes in fluorescence, with the excitation wavelength set at 341 nm and emission at 441 nm. The cutoff was 420 nm. PMT gain was set to medium, with six flashes per read. […] Calibration curves of pNA concentration vs absorbance and AMC vs fluorescence were constructed, and initial rate values were divided by the slope of these calibration curves to reveal the rate of product formation over time (Table S2).
For all assays excluding pH dependence curves, buffer conditions were as follows: 100 mM HEPES, 50 mM KCl, and pH 8.0. For assays carried out under pseudo-first-order conditions, one reaction component was fixed and in excess, while the other was varied. […] For assays involving variation of aa-pNA or aa-AMC, MnCl2 was added to a final concentration of 3 mM.

PaPepA [3] = target: T1, PaPepA; assay: Solvent kinetic isotope effects; type: biochemical; parameters: GG stays after cleavage) (N); made in house; host or cells: E. coli BL21(DE3); settings: H2O vs 80% D2O, metal varied, Leu-pNA fixed, pH 8.0
Description: SKIEs were determined by plotting saturation curves in H2O or 80% D2O. […] Differences between reaction rates under initial velocity conditions were measured varying the concentration of either Leu-pNA or Mn^2+, while keeping the other component constant and in excess (at least 5× the value of KM or KACT, Scheme 2). Experiments were performed at pH 8.0 (100 mM HEPES, with 50 mM KCl). For proton inventory studies, D2O was varied from 0 to 80% in 10% increments. All proton inventory studies were carried out on the same day by using the same enzyme stock.
When calculating SKIEs, kcat and KM were obtained from the Michaelis–Menten curves in H2O. The 80% D2O Michaelis–Menten curve was fit to the following equation: [drawing 2] 2 where Fi is the fraction D2O, and EV/K and EV are the isotope effects −1 on kcat/KM and kcat, respectively.

PaPepA [4] = target: T1, PaPepA; assay: Zn2+ inhibition in the pNA assay with Mn2+; type: biochemical; parameters: GG stays after cleavage) (N); made in house; host or cells: E. coli BL21(DE3)
Description: Figure 3 PaPepA metal binding and catalysis. (A) PaPepA activity with different divalent metals assessed through kcat/KACT. Leu-pNA was present in all assays at a concentration of 2 mM. (B) The effects of Zn^2+ and Mn^2+ preincubation, followed by extensive dialysis in metal-free buffer and subsequent addition of excess Mn^2+. (C) Michaelis–Menten plots showing inhibition of PaPepA by Zn^2+. Data were fit to a noncompetitive mixed model of inhibition. (D) Representative plots of the ITC data for titrations of MnCl2 (left) and MgCl2 (right) with PaPepA. The top panel depicts raw data, and the bottom panel depicts the resulting enthalpy changes as a function of molar addition of metal as well as the best fit to a single binding site model. (E) Plot of room-temperature EPR double integrals against Mn^2+ concentration for samples without enzyme (teal dots) and in the presence of 20 μM PaPepA (purple dots). […] (F) Frozen solution EPR spectra of PaPepA in the presence of various ratios of Mn^2+: enzyme, upper box zoomed-in data without the metal in buffer control. For panels (A), (B), and (C), data are mean ± SEM across three replicates. For Figure 3D, experiments were performed in two separate biological replicates, one shown here for illustration, and all data were acquired in Figure S11. […]

PaPepA [5] = target: T1, PaPepA; settings: degassed solutions, 3 mM MnCl2, 2 mM Leu-pNA, sodium bicarbonate 0 to 5 mM
Description: For assays investigating bicarbonate dependence, all buffers and stock solutions were extensively degassed prior to use.[25]

PaPepA [6] = target: T1, PaPepA; assay: biochemical
Description: MnCl2 was present in excess.
concentrations of Leucine as an inhibitor.

T1 sequence (Q02RY8 whole entry): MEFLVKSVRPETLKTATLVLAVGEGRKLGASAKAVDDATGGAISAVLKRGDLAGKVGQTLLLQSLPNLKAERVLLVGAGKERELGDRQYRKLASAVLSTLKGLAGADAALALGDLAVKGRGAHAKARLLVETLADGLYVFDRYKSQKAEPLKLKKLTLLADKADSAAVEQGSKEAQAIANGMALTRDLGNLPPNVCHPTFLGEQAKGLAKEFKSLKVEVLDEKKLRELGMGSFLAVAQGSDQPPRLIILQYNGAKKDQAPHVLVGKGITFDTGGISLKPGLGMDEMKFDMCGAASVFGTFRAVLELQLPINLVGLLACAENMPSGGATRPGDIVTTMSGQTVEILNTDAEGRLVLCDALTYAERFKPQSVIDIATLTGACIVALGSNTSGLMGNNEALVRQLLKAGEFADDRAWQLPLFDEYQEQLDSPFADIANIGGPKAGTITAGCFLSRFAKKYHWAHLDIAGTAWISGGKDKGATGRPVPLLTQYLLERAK

[Mg+2] [Mg^2+]
number of metal atoms binding the protein (PaPepA [1]; ITC stoichiometry per monomer): 0.68
Kd (PaPepA [1]; ITC, first line per metal: N 1, [PepA] 35.80 ± 1.5 (Mn) or 32.60 (Mg) µM, [Metal] 400.0 or 1000 µM): 1.84 ± 0.182 µM
Kd (PaPepA [1]; ITC, one binding site per monomer): 2.1 ± 0.3 µM
Kd (PaPepA [1]; ITC, one binding site per monomer, 25 °C, pH 7.4): 2.14 ± 0.326 µM
Kd (PaPepA [1]; ITC, second line per metal: N 1, [PepA] 47.00 or 48.00 µM, [Metal] 526.5 ± 22.5 (Mn) or 1470 (Mg) µM): 2.72 ± 0.47 µM
N (PaPepA [1]; ITC, third line per metal: N fitted): 0.679 ± 0.001
Kd (PaPepA [1]; ITC, third line per metal: N fitted, [PepA] 47.00 or 48.00 µM, [Metal] 400.0 or 1000 µM): 1.84 ± 0.182 µM
KACT (PaPepA [2]; pH 8.0): 3 mM and 3.0 ± 0.7 mM
kcat (PaPepA [2]; pH 8.0): 0.051 ± 0.002 s^–1
kcat/KACT (PaPepA [2]; pH 8.0): 0.017 ± 0.004 s^–1mM^–1
KACT (PaPepA [2]; pH 8.0, listed as MgCl2): ~3 mM
^D2Okcat (PaPepA [3]): 3.1 ± 0.1
^D2Okcat/KACT (PaPepA [3]): 2.3 ± 0.1

[Zn+2] [Zn^2+]
KACT (PaPepA [2]; pH 8.0): 0.02 ± 0.01 mM
kcat (PaPepA [2]; pH 8.0): 0.009 s^–1 and 0.009 ± 0.001 s^–1
kcat/KACT (PaPepA [2]; pH 8.0): 0.5 ± 0.2 s^–1mM^–1
KACT (PaPepA [2]; pH 8.0, as given in text): 0.02 mM
Ki (PaPepA [4]; Zn^2+ and Mn^2+ both added without preincubation, noncompetitive mixed model): 12.2 µM
α (PaPepA [4]; noncompetitive model of inhibition): 5.6

O=C([O-])O.[Na+] [bicarbonate, sodium bicarbonate]
activation by bicarbonate (in words) (PaPepA [5]): not observed activation or increase in activity

CC(C)C[C@H](N)C(=O)O [leucine]
Ki (PaPepA [6]): 601 µM
